The test deals with T1, ERα (Homo sapiens, UniProt P03372).
T1 construct: host or cells: MCF7
T1 sequence (P03372 1-595): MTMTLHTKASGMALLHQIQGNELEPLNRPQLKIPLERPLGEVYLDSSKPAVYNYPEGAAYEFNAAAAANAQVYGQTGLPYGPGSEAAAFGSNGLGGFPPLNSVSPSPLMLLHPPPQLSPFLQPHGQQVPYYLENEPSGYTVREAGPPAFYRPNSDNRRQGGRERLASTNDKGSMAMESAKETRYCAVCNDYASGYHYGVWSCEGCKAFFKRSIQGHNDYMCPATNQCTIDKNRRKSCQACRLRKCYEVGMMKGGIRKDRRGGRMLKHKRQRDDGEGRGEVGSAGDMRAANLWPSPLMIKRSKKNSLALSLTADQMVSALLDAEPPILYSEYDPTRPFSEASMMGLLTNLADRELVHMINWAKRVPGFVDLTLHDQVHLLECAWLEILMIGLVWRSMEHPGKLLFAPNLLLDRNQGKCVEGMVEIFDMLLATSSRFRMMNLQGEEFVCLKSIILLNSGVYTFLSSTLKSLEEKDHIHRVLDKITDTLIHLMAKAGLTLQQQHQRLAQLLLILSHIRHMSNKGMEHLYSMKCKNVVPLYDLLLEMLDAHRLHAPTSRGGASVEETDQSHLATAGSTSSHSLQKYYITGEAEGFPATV
As to the kind of experiment: Estrogen receptor degradation activity: breast cancer cell ERα in cell western assay (MCF7 cells). The test is classed as cell-based. The conditions noted are these: for % Degradation At 0.3 μM: 4 hours, relative to fulvestrant 0.1 μM positive control; for DC50: 4 hours post compound addition, concentration which degrades 50% of the estrogen receptor, read-out: Degradation IC50. The method in brief:
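In-cell western readout: ERα immunofluorescence (Alexa 488) normalised to DNA signal (Syto-64) after formalin fixation. Compounds dosed for 4 h on MCF7 cells in stripped-serum, phenol-red-free medium over nine 1:5 steps, 0.3 to […] final; fulvestrant 0.1 μM control. IC50 in nM for 50% ERα degradation.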

As to `O=C(O)c1ccc2c(c1)CCCC(c1ccc(F)cc1F)=C2c1cc(F)c(C=C2CN(CCCF)C2)c(F)c1` [Example 59, 9-(3,5-difluoro-4-((1-(3-fluoropropyl)azetidin-3-ylidene)methyl)phenyl)-8-(2,4-difluorophenyl)-6,7-dihydro-5H-benzo[7]annulene-3-carboxylic acid], the “% Degradation At 0.3 μM” value is 93% and the DC50 came out at 0.4 nM.

Turning to `O=C(O)c1ccc2c(c1)CCCC(c1ccc(Cl)c(C(F)(F)F)c1)=C2c1ccc(C=C2CN(CCCF)C2)cc1` [Example 5, 8-(4-chloro-3-(trifluoromethyl)phenyl)-9-(4-((1-(3-fluoropropyl)azetidin-3-ylidene)methyl)phenyl)-6,7-dihydro-5H-benzo[7]annulene-3-carboxylic acid], the “% Degradation At 0.3 μM” value was determined as 88% and the DC50 was 1 nM.

`Cc1cc(C2=C(c3ccc(F)cc3C)CCCc3cc(C(=O)O)ccc32)c(C)cc1C=C1CN(CCCF)C1` [Example 45, 8-(4-fluoro-2-methylphenyl)-9-(4-((1-(3-fluoropropyl)azetidin-3-ylidene)methyl)-2,5-dimethylphenyl)-6,7-dihydro-5H-benzo[7]annulene-3-carboxylic acid]: the “% Degradation At 0.3 μM” value turned out to be 89% and the DC50 came to 0.7 nM.

Consider `Cc1cc(C2=C(c3ccc(F)cc3F)CCCc3cc(C(=O)O)ccc32)cc(F)c1C=C1CN(CCCF)C1` [Example 27, 8-(2,4-difluorophenyl)-9-(3-fluoro-4-((1-(3-fluoropropyl)azetidin-3-ylidene)methyl)-5-methylphenyl)-6,7-dihydro-5H-benzo[7]annulene-3-carboxylic acid], for which the “% Degradation At 0.3 μM” value came out at 92% and the DC50 turned out to be 0.9 nM.

As to `Cc1cc(C2CC2)ccc1C1=C(c2ccc(C=C3CN(CCCF)C3)cc2)c2ccc(C(=O)O)cc2CCC1` [Example 39, 8-(4-cyclopropyl-2-methylphenyl)-9-(4-((1-(3-fluoropropyl)azetidin-3-ylidene)methyl)phenyl)-6,7-dihydro-5H-benzo[7]annulene-3-carboxylic acid], the “% Degradation At 0.3 μM” value came out at 87% and the DC50 came out at 0.2 nM.

The values are drawn from patent US12612360B2 (Sanofi, priority 2020, dated 2026).
